# Results: US11440923B2, “Substituted macrocyclic indole derivatives” (Bayer Aktiengesellschaft, priority 2017, dated 2022)
# Tests used:
# [1] = test system: SNU-389 cells; experiment: Antiproliferation assay SNU-389 (Assay 7); format: cell-based; conditions: 72 h, CellTiter-Glo; read-out: Antiproli SNU-389 IC50
# Description: (§1) Assessment of the Anti-Proliferative Effect of Compounds in Different Cell Lines
# (§2) The impact of compounds on the proliferation of different cell lines was assessed using the CellTiter-Glo® Luminescent Cell Viability reagent from Promega (G7573).
# (§3) In parallel, cells were plated in a reference (day 0) plate for time zero determination. Cells were incubated in a humidified incubator at 37° C. overnight.
# (§4) Rim wells were excluded. The cells were incubated for 72 h hours in a humidified incubator at 37° C. The day 0 plate was measured by adding 30 μL/well of CTG solution (CellTiter-Glo® Luminescent Cell Viability reagent, Promega G7573) to time zero wells in the reference plate followed by a 10 minutes incubation and luminescence reading at 0.1 ms. using the PHERAstar FS microplate reader (BMG Labtech).
# (§5) After 72 h incubation, the treated plates were measured in the same way as the day 0 plate mentioned above. The Bella DRC Master Sheet was used to calculate IC50s, with CI=day 0 values and C0=DMSO control values.
# [2] = test system: MV-4-11 cells; experiment: Antiproliferation assay MV-4-11 (Assay 7); format: cell-based; conditions: 72 h, CellTiter-Glo; read-out: Antiproli MV-4-11 IC50 median
# Description: as §1, §2, §3, §4, §5
# [3] = test system: REC-1 cells; experiment: Antiproliferation assay REC-1 (Assay 7); format: cell-based; conditions: 72 h, CellTiter-Glo; read-out: Antiproli REC-1 IC50
# Description: as §1, §2, §3, §4, §5
# [4] = test system: AMO-1 cells; experiment: Antiproliferation assay AMO-1 (Assay 7); format: cell-based; conditions: 72 h, CellTiter-Glo; read-out: Antiproli AMO-1 IC50 median
# In short: (§6)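 Cells were plated overnight at 37° C, then compound-treated for 72 h. Viability was measured by CellTiter-Glo luminescence.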
# [5] = test system: A2780 cells; experiment: Antiproliferation assay A2780 (Assay 7); format: cell-based; conditions: 72 h, CellTiter-Glo; read-out: Antiproli A2780 IC50 median
# Description: as §1, §2, §3, §4, §5
# [6] = test system: SUDHL5 cells; experiment: Induction of cytotoxicity in SUDHL5 cells (Assay 6); format: cell-based; conditions: 5 h, CellTiter-Glo; read-out: Cytotox SUDHL5 IC50 (median)
# In short: (§7)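 SUDHL5 and SUDHL10 cells plated and held overnight at 37° C, then incubated 5 h at 37° C with compound. Viability measured by CellTiter-Glo luminescence after 15 min shaking at room temperature. Cell-free medium wells served as control.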
# [7] = biological target: MBP-MCL1 (Homo sapiens (Human), UniProt Q07820, K194A/K197A/R201A); experiment: X-ray crystallographic analysis of MBP-MCL1 in complex with inhibitor; format: binding; conditions: MBP-MCL1 co-crystal structure
# MBP-MCL1, sequence (Q07820 whole entry, looked up, stated change not applied): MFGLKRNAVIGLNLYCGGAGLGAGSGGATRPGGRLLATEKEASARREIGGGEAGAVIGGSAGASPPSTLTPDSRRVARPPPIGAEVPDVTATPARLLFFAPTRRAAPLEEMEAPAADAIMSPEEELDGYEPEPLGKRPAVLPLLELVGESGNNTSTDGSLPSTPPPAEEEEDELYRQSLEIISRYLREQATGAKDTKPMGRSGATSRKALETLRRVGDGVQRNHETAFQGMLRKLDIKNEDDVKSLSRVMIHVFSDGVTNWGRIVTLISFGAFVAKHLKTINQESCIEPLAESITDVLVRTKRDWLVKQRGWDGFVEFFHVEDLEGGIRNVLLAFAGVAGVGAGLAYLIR
# Excerpt: For clarity only the ligand non-hydrogen atoms are shown. Carbon atom C7 unambiguously features the (R)-configuration and the bound atropisomer as defined by the C4-C38 axis is the (Ra)-configuration.
# The X-ray crystallographic analysis described in the MCL-1 structural analysis section infra, provides an atomic resolution view of the relative arrangement of the atoms of MBP-MCL1 in complex with example 47.
# [8] = test system: SUDHL10 cells; experiment: Induction of cytotoxicity in SUDHL10 cells (Assay 6); format: cell-based; conditions: 5 h, CellTiter-Glo; read-out: Cytotox SUDHL10 IC50 (median)
# In short: as §7
# [9] = biological target: MCL-1 (Homo sapiens (Human), UniProt Q07820, K194A/K197A/R201A); experiment: Protein-protein interaction assay MCL-1/Noxa BH3 peptide (MCL-1 assay, TR-FRET); format: binding; conditions: read-out: MCL-1 Assay IC50 (median)
# MCL-1, sequence (Q07820 whole entry, looked up, stated change not applied, the tested form may be a part): as the sequence (Q07820 whole entry, looked up, stated change not applied) above
# In short: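 Competition TR-FRET with MBP-MCL-1 (aa 173-321) at 1 nM final and biotinylated Noxa BH3 peptide, pH 7 Tris buffer. Compounds pre-incubated 10 min at 22° C., then 1 h at 22° C. and overnight at 4° C. 665/620 nm ratio normalized to DMSO; IC50 from 4-parameter fit.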
# [10] = test system: SK-MEL-2 cells; experiment: Antiproliferation assay SK-MEL-2 (Assay 7); format: cell-based; conditions: 72 h, CellTiter-Glo; read-out: Antiproli SK-MEL-2 IC50 median
# Description: as §1, §2, §3, §4, §5
# [11] = test system: HMC-1-8 cells; experiment: Antiproliferation assay HMC-1-8 (Assay 7); format: cell-based; conditions: 72 h, CellTiter-Glo; read-out: Antiproli HMC-1-8 IC50 median
# In short: as §6
# [12] = test system: NCI-H23 cells; experiment: Antiproliferation assay NCI-H23 (Assay 7); format: cell-based; conditions: 72 h, CellTiter-Glo; read-out: Antiproli NCI-H23 IC50
# Description: as §1, §2, §3, §4, §5
# [13] = test system: A2058 cells; experiment: Antiproliferation assay A2058 (Assay 7); format: cell-based; conditions: 72 h, CellTiter-Glo; read-out: Antiproli A2058 IC50
# Description: as §1, §2, §3, §4, §5
# [14] = test system: SK-BR-3 cells; experiment: Antiproliferation assay SK-BR-3 (Assay 7); format: cell-based; conditions: 72 h, CellTiter-Glo; read-out: Antiproli SK-BR-3 IC50 median
# Description: as §1, §2, §3, §4, §5
Structure (SMILES),IC50 [1] [µM],IC50 [2] [µM],IC50 [3] [µM],IC50 [4] [µM],IC50 [5] [µM],IC50 [6] [µM],interaction with the target MCL1 shown by X-ray structure of the complex [7],IC50 [8] [µM],IC50 [9] [µM],IC50 [10] [µM],IC50 [11] [µM],IC50 [12] [µM],IC50 [13] [µM],IC50 [14] [µM]
Cc1c2c(nn1C)C(CCN1CCOCC1)OCCCCn1c(C(=O)O)c(CCCOc3cccc4ccccc34)c3cccc-2c31 (centres unmarked) [Example 04],10.7,1.75,21,2.56,14.3,,,,,,,,,
"CCc1c2c(nn1C)[C@@H](CCN1CCOCC1)OCCCCn1c(C(=O)O)c(CCCOc3cccc4cc(F)ccc34)c3ccc(Cl)c-2c31 [Example 47, (+)-4-chloro-3-ethyl-7-{3-[(6-fluoronaphthalen-1-yl)oxy]propyl}-2-methyl-(15R)-[2-(morpholin-4-yl)ethyl]-2,10,11,12,13,15-hexahydropyrazolo[4′,3′:9,10][1,6]oxazacycloundecino[8,7,6-hi]indole-8-carboxylic Acid]",,,,,,0.0082,clear and direct interaction,0.0079,0.00037,,,,,
Cc1c2c(nn1C)C(CCN1CCOCC1)OCCCCn1c(C(=O)O)c(CCCOc3cccc4ccccc34)c3cccc-2c31 (centres unmarked) [Example 05],,1.75,,9.47,14.4,,,,,11.6,6.29,6.98,12.8,7.3
